From paper PMC6014687 (Journal of Medicinal Chemistry, 2016)
Where “and” joins values, the source holds several entries; their conditions need not be identical. Equal values may be shown once. Read-outs that look alike come from different tables or passages of the source.

Assays:
SK-OV-3 cells [1] = assay: cells; conditions: Homo sapiens, SK-OV-3, 96 h
[2] = system: SK-OV-3 human ovarian carcinoma xenograft; conditions: female, NCr athymic, mouse, in vivo
in vivo [3] = conditions: female, BALB/c, mouse, 5 mg/kg; for AUC(0-inf): AUCinf; for AUC(0-t): AUClast
Description: Experimental work was done in accordance with Home Office regulations under the
UK National Cancer Research CR I Guidelines with local Ethical Committee approval.9
Female BALB/c and Ncr-Foxn1nu mice were obtained from Charles River (Margate, UK).
Animals were adapted to laborator y conditions for at least 1 week prior to dosing and were
allowed food and water ad libitum. Compounds were administered iv or po (0.1 m L/10 g) in
hydrox yprop yl beta c ycl odextrin in 50 mM sodium citrate buff er (Ncr-Foxn1nu PK). Blood
spotted onto Whatman FTA-DMPK B cards (VWR) together with a calibration curve and
qualit y controls spiked in control blood. Cards were allowed to dr y at room temperature for at
least 2 h. 6 mm discs were punched from the cards and extracted with 200 µ L methanol
containing 500 nM olo moucine as an internal standard. Following centrifugation, extracts
were anal yzed b y multiple reaction monitoring of precursor and product ions by LC-ES I-
% formic acid and methanol on a Phenomenex (Macclesfi eld, UK) Kinet exTM C18, 5 cm x
2.6 µ m, 2.1 mm i.d UHP LC column. Pharmac okinetic parameters were derived from non -

in vivo [4] = conditions: female, mouse, po, 20 mg/kg
physchem = conditions: pH 7.4
SK-OV-3 cells [5] = system: SK-OV-3 cells
recombinant human pirin = recombinant human pirin (Homo sapiens, UniProt O00625)
Chain of recombinant human pirin (O00625 whole entry): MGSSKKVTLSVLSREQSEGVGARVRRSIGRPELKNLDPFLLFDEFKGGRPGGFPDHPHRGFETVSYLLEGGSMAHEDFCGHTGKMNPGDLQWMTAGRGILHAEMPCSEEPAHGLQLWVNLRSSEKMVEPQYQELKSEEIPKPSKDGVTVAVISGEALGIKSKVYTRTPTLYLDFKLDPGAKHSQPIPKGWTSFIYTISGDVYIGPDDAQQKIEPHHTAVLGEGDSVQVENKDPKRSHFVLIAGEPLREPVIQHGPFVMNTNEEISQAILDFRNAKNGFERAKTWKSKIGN

WM266.4 cells = conditions: WM266.4, 30 h
[6] = read-out: SK-OV-3 pGI50±SEM (converted)

Compound	GI50 (SK-OV-3 cells [1]; read-out: SK-OV-3 GI50) [nM]	GI50 (SK-OV-3 cells [1]; [6]) [nM]	also measured
Cc1ccc2cc(C(=O)Nc3c(C)ccc(NC(=O)c4ccc5c(c4)OCCO5)c3C)ccc2n1 [Compound 11, N-(3-(2,3-Dihydrobenzo[b][1,4]dioxine-6-carboxamido)-2,6-dimethylphenyl)-2-methylquinoline-6-carboxamide]	> 1000	> 1000	–
Cc1ccc2cc(C(=O)Nc3cc(NC(=O)c4cccc5c4OCCO5)ccc3C)ccc2n1 [Compound 6, N-(5-(2,3-Dihydrobenzo[b][1,4]dioxine-5-carboxamido)-2-methylphenyl)-2-methylquinoline-6-carboxamide]	> 1000	> 1000	–
Cc1ccc(NC(=O)c2ccc3c(c2)OCCO3)cc1NC(=O)c1ccc2nc(OCCN3CCCCC3)ccc2c1 [Compound 25, N-(5-(2,3-Dihydrobenzo[b][1,4]dioxine-6-carboxamido)-2-methylphenyl)-2-(2-(piperidin-1-yl)ethoxy)quinoline-6-carboxamide]	1.1	–	–
COCCOc1ccc2cc(C(=O)Nc3cc(NC(=O)c4ccc5c(c4)OCCO5)ccc3C)ccc2n1 [Compound 21, N-(5-(2,3-Dihydrobenzo[b][1,4]dioxine-6-carboxamido)-2-methylphenyl)-2-(2-methoxyethoxy)quinoline-6-carboxamide]	4.3	4.27	–
Cc1ccc(NC(=O)c2ccc3c(c2)OCCO3)cc1NC(=O)c1ccc2nc(OCCCN(C)C)ccc2c1 [Compound 22, N-(5-(2,3-Dihydrobenzo[b][1,4]dioxine-6-carboxamido)-2-methylphenyl)-2-(3-(dimethylamino)propoxy)quinoline-6-carboxamide]	1.1	1.15	–
Cc1ccc2cc(C(=O)Nc3cc(NS(=O)(=O)c4ccc5c(c4)OCCO5)ccc3C)ccc2n1 [Compound 14, N-(5-(2,3-Dihydrobenzo[b][1,4]dioxine-6-sulfonamido)-2-methylphenyl)-2-methylquinoline-6-carboxamide]	> 1000	> 1000	–
Cc1ccc(NC(=O)c2ccc3c(c2)OCCO3)cc1NC(=O)c1ccc2nc(OCCN3CCCC3)ccc2c1 [Compound 26, N-(5-(2,3-Dihydrobenzo[b][1,4]dioxine-6-carboxamido)-2-methylphenyl)-2-(2-(pyrrolidin-1-yl)ethoxy)quinoline-6-carboxamide]	–	–	total tumor concentrations [2]: ≤ 940 nM; half-life at 24 h (in vivo [3]): 5.3 h; AUC(0-inf) (in vivo [3]; iv): 14.8 µM·h; AUC(0-t) (in vivo [3]; iv): 14.1 µM·h; clearance (in vivo [3]; iv, Cl): 9.8 mL/min/kg; Cmax (in vivo [3]; iv): 3830 nM; Vd (in vivo [3]; iv, Vss): 3.26 L/kg; Vd at 24 h (in vivo [3]; iv, Vss): 4.2 L/kg; Vd (in vivo [3]; iv, Vz): 5.78 L/kg; clearance at 24 h (in vivo [3]; iv, blood Cl): 9.2 mL/min/kg; AUC(0-t) at 24 h (in vivo [3]; po, AUC0–24h PO): 5.8 µM·h; AUC(0-inf) (in vivo [3]; po): 6.09 µM·h; AUC(0-t) (in vivo [3]; po): 5.02 µM·h; Cmax (in vivo [3]; po): 828 nM; AUC(0-inf) (in vivo [4]; Ncr-Foxn1nu (athymic), AUCinf): 1.58 µM·h; AUC(0-t) (in vivo [4]; Ncr-Foxn1nu (athymic), AUClast): 1.53 µM·h; Cmax (in vivo [4]; Ncr-Foxn1nu (athymic), Cmax): 439 nM; AUC(0-t) at 24 h (in vivo [4]; athymic (Ncr-Foxn1nu), AUC0–24h PO): 1.9 µM·h; chromatographic logD (physchem): 2.1
CCC(=O)NCCOc1ccc2cc(C(=O)Nc3cc(NC(=O)c4ccc5c(c4)OCCO5)ccc3C)ccc2n1 [Compound 27]	9.1	9.12	–
Cc1ccc(NC(=O)c2ccc3c(c2)OCCO3)cc1NC(=O)c1ccc2ncccc2c1 [Compound 15, N-(5-(2,3-Dihydrobenzo[b][1,4]dioxine-6-carboxamido)-2-methylphenyl)quinoline-6-carboxamide]	8.6	2.51	–
Cc1ccc(NC(=O)c2ccc3c(c2)OCCO3)cc1NC(=O)c1ccc2nc(OCCCN3CCOCC3)ccc2c1 [Compound 23, N-(5-(2,3-Dihydrobenzo[b][1,4]dioxine-6-carboxamido)-2-methylphenyl)-2-(3-morpholinopropoxy)quinoline-6-carboxamide]	7.4	7.41	–
Cc1ccc(NC(=O)c2cccc3c2OCCO3)cc1NC(=O)c1ccc2nc(OCCN3CCCC3)ccc2c1 [Compound 28, N-(5-(2,3-Dihydrobenzo[b][1,4]dioxine-5-carboxamido)-2-methylphenyl)-2-(2-(pyrrolidin-1-yl)ethoxy)quinoline-6-carboxamide]	> 1000	> 1000	SK-OV-3 pGI50±SEM (SK-OV-3 cells [5]): <6; AS (apparent stoichiometry) (recombinant human pirin): 1.18 and 1.11 and 1.80; antimigratory activity (WM266.4 cells): no measurable antimigratory activity
Cc1ccc2cc(C(=O)Nc3cc(NC(=O)c4ccc5c(c4)OCCO5)c(C)cc3C)ccc2n1 [Compound 12, N-(5-(2,3-Dihydrobenzo[b][1,4]dioxine-6-carboxamido)-2,4-dimethylphenyl)-2-methylquinoline-6-carboxamide]	> 1000	> 1000	–
Cc1ccc(NC(=O)c2ccc3c(c2)OCCO3)cc1NC(=O)c1ccc2nc(OCCN)ccc2c1 [Compound 29, 2-(2-Aminoethoxy)-N-(5-(2,3-dihydrobenzo[b][1,4]dioxine-6-carboxamido)-2-methylphenyl)quinoline-6-carboxamide]	3.1	3.09	–
